# Measured values: patent US12102672B2, “Immunogenic sequences from a phage tail length tape measure protein, bacteria expressing the same and their use in treating a cancer” (INSTITUT GUSTAVE ROUSSY, priority 2017, dated 2024)
# Entries after “also recorded” stand apart in the source; their conditions may differ. Where no end group is shown, it is not given here.
# What was measured:
# MCA-205 sarcoma [1] = test: MCA-205 sarcoma growth in FMT-treated mice, CTX plus oral gavage with E. hirae strains; assay type: in vivo; conditions: for Anti-tumor effect: summary of the characteristics of the strains, with CTX, MCA205 sarcoma; for antitumor effect together with CTX (summary statements): MCA205 tumor model together with CTX; for boost of CTX tumoricidal activity (MCA-205 tumor growth): dysbiotic FMT from BC patient, 3 cycles CTX 100 mg/kg, oral gavage 1.10^9 bacteria
# Experimental: FIG. 1. Experimental setting. (A) Mice are treated with broad spectrum antibiotics (streptomycin, colistin, ampicillin and vancomycine) for 3 days before performing Fecal Microbiota Transplantation (FMT). 14 days post-FMT, MCA-205 sarcoma cell lines are inoculated in the right flank of mice (8.10^5 cells per mice). […] (B) Non FMT-treated SPF mice are used as control.
# FIG. 2. Dysbiosis by FMT BC patient 1: Effectiveness of E. hirae 13144 to restore CTX-mediated antitumor effects. […] (C) Tumor growth curves of MCA-205 sarcoma in FMT-treated mice after oral gavage with strain E. hirae 13144 or NaCl as control. 2 independent experiments are depicted. (D) Overall survival of FMT-treated, MCA-205 sarcoma bearing mice treated with CTX or NaCl after oral gavage with strain E. hirae 13144. A typical survival curve is depicted for six mice per group. (E) Concatenated data of tumor sizes at day 21 post-CTX from 2 independent experiments are shown.
# FIG. 3. […] (C) Tumor growth curves of MCA-205 sarcoma in FMT-treated mice after oral gavage with strain E. hirae 13144 or NaCl as control. 2 independent experiments are depicted. (D) Concatenated data of tumor sizes at day 21 post-CTX from 2 independent experiments are shown.
# FIG. 4. […] Tumor growth curves of MCA-205 sarcoma in FMT-treated mice after oral gavage with strain E. hirae 13144 (A), IGR1 (B) or NaCl as control. A typical curve is depicted for six mice per group. (C) Concatenated data of tumor sizes at day 17 post-CTX from 1-2 independent experiments are shown. (D). Comparaison of various strains of E. hirae for their capacity to control tumor growth. […] EH10815 fails to work and that may be related to a mutation residing in TMP2 (see below FIG. 13B).
# FIG. 5. […] (A) Tumor surface of MCA-205 sarcoma in FMT-treated mice after oral gavage with strain E. hirae 13144, IGR4, IGR7, Actinomycetes spp (Ao) and injected with 3 cycles of CTX (C) vs NaCl (N). Each dot is one mouse/tumor. (B) Tumor growth curves of MCA-205 sarcoma in SPF mice of the best group, means+SEM of tumor sizes at each time point and tumor sizes at sacrifice (C: CTX). Each dot is one mouse/tumor. Anova statistics indicating significant differences between CTX and the triple combination. (C) Tumor surface of MCA-205 sarcoma in FMT-treated mice after oral gavage with strains EH13144, IGR1, IGR11, Barnesiella or Akkermansia and injected with 3 cycles of CTX. Bacterial strains are used alive (V) or pasteurized (P). For pasteurization, bacteria are incubated 30 min at 70° C. and frozen at −80° C. at least 6 hours.
# FIG. 6. […] Tumor growth curves of MCA-205 sarcoma in FMT-treated mice after oral gavage with strain E. hirae 13144 alive (A), pasteurized (B) or NaCl as control. A typical curve is depicted for six mice per group. (C) Concatenated data of tumor sizes at day 17 post-CTX from 3 independent experiments are shown.
# MCA-205 sarcoma [2] = test: MCA205 sarcoma growth in antibiotic-treated SPF C57BL/6 mice, CTX plus oral gavage with bacteria; assay type: in vivo; conditions: ATB 3 days, CTX 100 mg/kg x3, weekly oral gavages, FIG. 27B
# Experimental: (§1) A and C. Experimental setting. […] D-E. Ex vivo recall assays. […] Each dot represents one mouse.
# A-B. Prophylactic vaccinations. […] C-D. Therapeutic settings.
# Mice were treated during 3 days with an antibiotic solution (ATB) containing ampicillin (1 mg/ml), streptomycin (5 mg/ml), colistin (1 mg/ml) (Sigma-Aldrich) and vancomycin (0.25 mg/ml) added in the sterile drinking water of mice. Antibiotic activity was confirmed by cultivating fecal pellets resuspended in BHI+15% glycerol at 0.1 g/ml on COS (BD Columbia Agar with 5% Sheep Blood) plates for 48 h at 37° C. in aerobic and anaerobic conditions. In the context of bacterial transplantation experiments, mice received 3 days of ATB before undergoing bacterial transplantation the next day by oral gavage using animal feeding needles.
# Syngeneic C57BL/6 mice were implanted with 0.8×10^6 MCA-205 WT sarcoma cells subcutaneously and treated intraperitoneally (i.p.) when tumors reached 20 to 35 mm^2 in size with CTX (100 mg/kg). Depending on the experimental setting, mice were injected once or 3 times at 1-week interval. Tumor size was routinely monitored every 3 days by means of a caliper.
# Enterococcus hirae 13144 were originally isolated from spleens of SPF mice treated with CTX in our laboratory.
# pTh17 cells = test: Induction of pTh17 cells in secondary lymphoid organs of CTX-treated animals; assay type: in vivo
# Source text: The reasons for these differences were however unknown, and the inventors pursued their research to identify the factor(s) responsible for the immunogenic properties of the murine strain EH13144 and the human clones IGR4, IGR7 and IGR11, in order to derive new molecules or microorganisms useful in the treatment of cancer.
# [3] = system: IFNg producing CD8^+ T (Tc1) cells; conditions: naïve mice; cited from earlier work
# splenic CD8+ T cells = test: IFNγ ELISpot recall assay of splenic CD8+ T cells with DCs pulsed with heat-inactivated bacteria or peptides; assay type: cell-based, mice; conditions: for TC1 response against TMP1 in mice gavaged with the strain (IFNγ ELISpot): Example 12, FIG. 27E; for recall responses to TMP1, TMP2 and Group7 after in vivo immunization with the strain: Example 3, FIG. 13E
# Experimental: FIG. 9. Experimental immunization protocols to elucidate the immunogenicity of EH peptides. […] 5 days after the first oral gavage, mice are treated with CTX. One week post-CTX, CD8+ T cells are isolated from spleen. These CD8+ T cells are incubated with dendritic cells (DCs) pulsed with 20 μg/ml of peptides (during 1 hour) or with heat-inactivated bacteria (during 6 hours). Inactivation of bacteria consists in incubation at 65° C. during 2 hours. After 24 hours of culture, ELIspot of IFNγ is performed.
# FIG. 10. Cross-reactivity between the two E. hirae 708 and 13144 species for CTL splenic reactivity. Number of IFNγ spot representing IFNγ-secreting CD8+ T cells after co-culture with DCs pre-incubated with or without heat-inactivated bacteria (708, 13144, EH17 and L. plantarum).
# FIG. 13. Peptides from group 7 containing the TMP1 and TMP2 epitopes activate CD8+ T cells from spleen of mice immunized against E. hirae 13144. Number of IFNγ spot, representing IFNγ-secreting CD8+ T cells, after incubation with DCs pulsed with 13 different group of peptide (Table 6). Just group n° 1 (A) and group n° 7 (B) are shown. (C, E) Number of IFNγ spot, representing IFNγ-secreting CD8+ T cells, after incubation with DCs pulsed with 4 peptides belong to group n° 7 (in table 7). (D) Sequence alignment of TMP1 and TMP2 of EH10815 (SEQ ID Nos: 228 and 229 respectively) compared to EH13144 (fragments of SEQ ID NO: 1) at the level of immunogenic peptides. Amino acid sequence […] corresponds to SEQ ID No: 13. Amino acid sequence […] corresponds to SEQ ID No: 217. Amino acid sequence […] corresponds to SEQ ID Nos: 14. Amino acid sequence AlIEFIKGL corresponds to SEQ ID No: 218. (E) In vitro reactivity of splenic CTL in a recall response to TMP1 and TMP2 as well as Group7 after in vivo immunization with other strains of EH.
# as §1
# BM-DC = test: IL-1B and IL-12 production by BM-DC; assay type: cell-based; conditions: data not shown
# [4] = system: TMP1-specific CD8+ T cells; conditions: FIG. 27H
# [5] = system: CD8+ T cells from HLA-A02*01 healthy volunteers; test: IFNγ ELISpot of CD8+ T cells from HLA-A2 healthy volunteers stimulated with TMP epitopes; assay type: cell-based, human; conditions: Example 7, FIG. 24B
# [6] = system: MCA205 cells with PSMB4 GSFARFRNI knock-in; test: Growth of Psmb4 knock-in MCA205 tumors under CTX +/- E. hirae 13144; assay type: in vivo, mice; conditions: L→F exchange in position 3, versus WT MCA205
# [7] = molecular target: fluorescent H-2K^b/[…] (SEQ ID No: 13) tetrameric complex (mouse; Enterococcus hirae 13144 (39.2 kb prophage, TMP)) (UniProt P01901); test: flow cytometry with the fluorescent H-2K^b/… tetramer
molecule,measurement,setting,value
"Enterococcus hirae 13344 [EH17 (13344), reference compound]",Anti-tumor effect,MCA-205 sarcoma [1],No
same,restoration of antibiotic-perturbed anticancer effects of CTX (MCA205 growth),MCA-205 sarcoma [2],reduced anticancer effect
same,capacity to induce pTh17 cells in secondary lymphoid organs,pTh17 cells,did not
same,immunogenic and oncomicrobiotic properties of the isolate,[3],no immunogenic nor oncomicrobiotic properties
same,memory Tc1 immune response (IFNγ spots) to BM-DC infected with EH isolates,"splenic CD8+ T cells; Example 2, FIG. 10, splenic CD8+ T cells after gavage + CTX, ELISPOT at 24 hrs",failed to do so
same,TC1 response against TMP1 in mice gavaged with the strain (IFNγ ELISpot),splenic CD8+ T cells,unable to do so
Enterococcus hirae strain IGR11 [IGR 11],antitumor effect together with CTX (summary statements),MCA-205 sarcoma [1],efficient to mediate some tumoricidal activity
same,antitumor effect together with CTX (summary statements),MCA-205 sarcoma [1]; listed as clone IGR11,to some extent
same,boost of CTX tumoricidal activity (MCA-205 tumor growth),MCA-205 sarcoma [1],not immunogenic
same,Anti-tumor effect,MCA-205 sarcoma [1],Yes
same,restoration of antibiotic-perturbed anticancer effects of CTX (MCA205 growth),MCA-205 sarcoma [2],efficient
same,restoration of antibiotic-perturbed anticancer effects of CTX (MCA205 growth),MCA-205 sarcoma [2]; listed as E. hirae IGR11,as efficient as E. hirae 13144
same,IL-1B and IL-12 production by BM-DC,BM-DC,as effective as EH13144
same,proportion of splenic TMP1-specific CTLs after immunization with the strain (tetramer),[4],high proportion
RLLKYDVGV,immunogenicity in humans of HLA-A0201-restricted epitopes,[5],immunogenicity of which has been experimentally confirmed
Enterococcus hirae IGR1 [IGR 1],boost of CTX tumoricidal activity (MCA-205 tumor growth),MCA-205 sarcoma [1],not immunogenic; also recorded: failed to efficiently boost CTX tumoricidal activity
same,Anti-tumor effect,MCA-205 sarcoma [1],No
same,IL-1B and IL-12 production by BM-DC,BM-DC,as effective as EH13144
LLGIYQSYV,immunogenicity in humans of HLA-A0201-restricted epitopes,[5],immunogenicity of which has been experimentally confirmed
Enterococcus hirae IGR10 [IGR 10],boost of CTX tumoricidal activity (MCA-205 tumor growth),MCA-205 sarcoma [1],failed to efficiently boost CTX tumoricidal activity
same,Anti-tumor effect,MCA-205 sarcoma [1],No
"O=P1(N(CCCl)CCCl)NCCCO1 (centres unmarked) [CTX, cyclophosphamide, reference compound]",anticancer effect on PSMB4 knock-in (GSFARFRNI) MCA205 tumors,[6],not interfering
AMIEFIQGL,recognition of peptides by memory EH13144-induced Tc1 cells (IFNγ ELISpot),"splenic CD8+ T cells; Example 3, FIG. 13/32, DCs pulsed with 20 μg/ml peptides",highly recognized
KMVEILEEI,immunogenicity in humans of HLA-A0201-restricted epitopes,[5],immunogenicity of which has been experimentally confirmed
splenic CD8+ T cells of mice gavaged with E. hirae 13144 and treated with CTX (cells without a defined receptor),percentage of splenic CD8+ T cells recognising the tetramer,[7],< 1%
Enterococcus hirae strain IGR4 [IGR 4],antitumor effect together with CTX (summary statements),MCA-205 sarcoma [1],effective at synergizing with CTX
same,boost of CTX tumoricidal activity (MCA-205 tumor growth),MCA-205 sarcoma [1],also immunogenic
same,boost of CTX tumoricidal activity (MCA-205 tumor growth),MCA-205 sarcoma [1]; listed as EH IGR 4,efficacy comparable to EH 13144
same,Anti-tumor effect,MCA-205 sarcoma [1],Yes
KLAKFASVV,immunogenicity in humans of HLA-A0201-restricted epitopes,[5],immunogenicity of which has been experimentally confirmed
Enterococcus hirae strain IGR7 [IGR 7],antitumor effect together with CTX (summary statements),MCA-205 sarcoma [1],proved immunogenic
same,antitumor effect together with CTX (summary statements),MCA-205 sarcoma [1]; listed as clone IGR7,effective at synergizing with CTX
same,boost of CTX tumoricidal activity (MCA-205 tumor growth),MCA-205 sarcoma [1],also immunogenic
same,boost of CTX tumoricidal activity (MCA-205 tumor growth),MCA-205 sarcoma [1]; listed as EH IGR 7,efficacy comparable to EH 13144
same,Anti-tumor effect,MCA-205 sarcoma [1],Yes
same,restoration of antibiotic-perturbed anticancer effects of CTX (MCA205 growth),MCA-205 sarcoma [2],efficient
same,restoration of antibiotic-perturbed anticancer effects of CTX (MCA205 growth),MCA-205 sarcoma [2]; listed as E. hirae IGR7,as efficient as E. hirae 13144
same,capacity to induce pTh17 cells in secondary lymphoid organs,pTh17 cells,significant capacity to induce pTh17 cells
same,proportion of splenic TMP1-specific CTLs after immunization with the strain (tetramer),[4],high proportion
same,"recall responses to TMP1, TMP2 and Group7 after in vivo immunization with the strain",splenic CD8+ T cells,induce recall responses
ILVAITTTI,immunogenicity in humans of HLA-A0201-restricted epitopes,[5],immunogenicity of which has been experimentally confirmed
"Enterococcus hirae ATCC9790 [10815 (ATCC9790), reference compound]",boost of CTX tumoricidal activity (MCA-205 tumor growth),MCA-205 sarcoma [1],failed to efficiently boost CTX tumoricidal activity
same,boost of CTX tumoricidal activity (MCA-205 tumor growth),MCA-205 sarcoma [1]; listed as EH10815,did not mediate antitumor effects; also recorded: fails to work
same,Anti-tumor effect,MCA-205 sarcoma [1],No
same,restoration of antibiotic-perturbed anticancer effects of CTX (MCA205 growth),MCA-205 sarcoma [2],reduced anticancer effect
same,"recall responses to TMP1, TMP2 and Group7 after in vivo immunization with the strain",splenic CD8+ T cells,does not induce recall responses
same,TC1 response against TMP1 in mice gavaged with the strain (IFNγ ELISpot),splenic CD8+ T cells,unable to do so
